This note sets out measurements from patent publication US11286242B2 (priority 2018, dated 2022).

Structures are written as SMILES.

One assay has as its system Pyricularia oryzae. Briefly: microbe, parasite or virus in culture. The class given is cell-based. The settings on record: 168 h, read-out: control compared to the untreated check.
For a further assay, the system named is Botrytis cinerea. Briefly: Botrytis cinerea (gray mold) radial mycelial growth on Potato Dextrose Agar. The class given is cell-based. The following applies: 168 h, 22° C., 90% relative humidity, seven days, read-out: control compared to the untreated check. Here is the method: Example 3: Botrytis cinerea (Gray Mold)
Compounds were dissolved in 0.3% DMSO & then added to Potato Dextrose Agar medium just prior to dispensing it into petri dishes. 5 mL medium with compound in the desired concentration was dispensed into 60 mm sterile petri-plates. After solidification, each plate was seeded with 5 mm size mycelial disc taken form periphery of actively growing virulent culture plate. Plates were incubated in growth chambers at 22° C. temperature and 90% relative humidity for seven days and radial growth was measured.

For a further assay, the system named is Colletotrichum capsici. Briefly: Colletotrichum capsici (anthracnose) radial mycelial growth on Potato Dextrose Agar. The class given is cell-based. The settings on record: Colletotrichum truncatum, 168 h, 25° C., 60% relative humidity, seven days, read-out: control compared to the untreated check. Here is the method:
Example 5: Colletotrichum capsici (Anthracnose)
Compounds were dissolved in 0.3% DMSO & then added to Potato Dextrose Agar medium just prior to dispensing it into petri dishes. 5 mL medium with compound in the desired concentration was dispensed into 60 mm sterile petri-plates. After solidification, each plate was seeded with 5 mm size mycelial disc taken form periphery of actively growing virulent culture plate. Plates were incubated in growth chambers at 25° C. temperature and 60% relative humidity for seven days and radial growth was measured.

Another assay has as its system Alternaria solani. Briefly: Alternaria solani (early blight of tomato/potato) radial mycelial growth on Potato Dextrose Agar. The assay is classed as cell-based. The following applies: 168 h, Potato Dextrose Agar, 25° C., 60% relative humidity, seven days, read-out: control compared to the untreated check. Here is the method: Example 4: Alternaria solani (Early Blight of Tomato/Potato)
Compounds were dissolved in 0.3% DMSO & then added to Potato Dextrose Agar medium just prior to dispensing it into petri dishes. 5 mL medium with compound in the desired concentration was dispensed into 60 mm sterile petri-plates. After solidification each plate was seeded with 5 mm size mycelial disc taken form periphery of actively growing virulent culture plate. Plates were incubated in growth chambers at 25° C. temperature and 60% relative humidity for seven days and radial growth was measured.

For another assay, the system named is Phakopsora pachyrhizi. Briefly: Phakopsora pachyrhizi test in soybean, preventive spray. The assay is classed as in vivo. The settings on record: preventive spray on soybean plants, inoculated one day after treatment, greenhouse 25° C., 90% relative humidity, read-out: control (efficacy, disease severity rating) compared to the untreated check. The method, boiled down: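 Greenhouse soybean plants were sprayed preventively at the stated rates, with compound in 2% DMSO/acetone diluted in water. They were inoculated one day later with a 2.1×10^6 P. pachyrhizi spore suspension and held at 25° C and 90% RH. Severity (0–100%) was rated 3, 7, 10 and 15 days after application, giving % control versus untreated plants.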

A further assay has as its system Septoria lycopersici. Briefly: Septoria lycopersici (leaf spot of tomato) radial mycelial growth on Potato Dextrose Agar. The class given is cell-based. The settings on record: 300 ppm, 25° C., 70% relative humidity, seven days. Here is the method: Example 6: Septoria lycopersici (Leaf Spot of Tomato)
Compounds were dissolved in 0.3% DMSO & then added to Potato Dextrose Agar medium just prior to dispensing it into petri dishes. 5 mL medium with compound in the desired concentration was dispensed into 60 mm sterile petri-plates. After solidification, each plate was seeded with 5 mm size mycelial disc taken form periphery of actively growing virulent culture plate. Plates were incubated in growth chambers at 25° C. temperature and 70% relative humidity for seven days and radial growth was measured.

`O=S1(=Nc2ccc(-c3noc(C(F)(F)F)n3)cc2)CCOCC1` [Compound 133, 4-((4-(5-(trifluoromethyl)-1,2,4-oxadiazol-3-yl)phenyl)imino)-1,4λ^6-oxathiane 4-oxide]: the inhibition of growth at 300 ppm with Pyricularia oryzae, with Botrytis cinerea and in the assay on Colletotrichum capsici was more than 70% each time.
On to `CS(=O)(=NC(=O)C1CC1)c1ccc(-c2noc(C(F)(F)F)n2)cc1` (centres unmarked) [Compound 181, N-(methyl(oxo)(4-(5-(trifluoromethyl)-1,2,4-oxadiazol-3-yl)phenyl)-λ^6-sulfaneylidene)cyclopropanecarboxamide], for which the inhibition of growth at 300 ppm in the assay on Pyricularia oryzae and with Colletotrichum capsici was more than 70% each time.
`CS(=O)(=Nc1ccc(-c2noc(C(F)(F)F)n2)cc1)c1ccncc1` (centres unmarked) [Compound 15, methyl(pyridin-4-yl)((4-(5-(trifluoromethyl)-1,2,4-oxadiazol-3-yl)phenyl)imino)-λ^6-sulfanone]: the inhibition of growth at 300 ppm in the assay with Alternaria solani, with Pyricularia oryzae, in the assay with Botrytis cinerea and with Colletotrichum capsici was more than 70% each time. For the same molecule, the pest or weed control at 500 ppm with Phakopsora pachyrhizi is more than 90%.
In the case of `CS(=O)(=Nc1ccc(-c2noc(C(F)(F)F)n2)cc1)c1ccc(F)cc1` (centres unmarked) [Compound 17, (4-fluorophenyl)(methyl)((4-(5-(trifluoromethyl)-1,2,4-oxadiazol-3-yl)phenyl)imino)-λ^6-sulfanone], the inhibition of growth at 300 ppm with Alternaria solani, in the assay on Pyricularia oryzae, with Botrytis cinerea and in the assay on Colletotrichum capsici was more than 70% each time. In the assay with Phakopsora pachyrhizi, the pest or weed control at 500 ppm was more than 90%.
Regarding `CS(=O)(=NCc1ccc(-c2noc(C(F)(F)F)n2)cc1)c1ccc(Br)cc1` (centres unmarked) [Compound 22, (4-bromophenyl)(methyl)((4-(5-(trifluoromethyl)-1,2,4-oxadiazol-3-yl)benzyl)imino)-λ^6-sulfanone], the inhibition of growth at 300 ppm in the assay with Pyricularia oryzae and in the assay on Colletotrichum capsici was more than 70% throughout. Moreover, the pest or weed control at 500 ppm in the assay with Phakopsora pachyrhizi was more than 90%.
Turning to `CS(=O)(=Nc1ccc(-c2noc(C(F)(F)F)n2)cc1)c1ccc(Cl)cc1` (centres unmarked) [Compound 13, (4-chlorophenyl)(methyl)((4-(5-(trifluoromethyl)-1,2,4-oxadiazol-3-yl)phenyl)imino)-λ^6-sulfanone], the inhibition of growth at 300 ppm with Alternaria solani, with Pyricularia oryzae and in the assay with Colletotrichum capsici was more than 70% throughout.
With `O=C(NS(=O)(=O)c1ccc(Cl)cc1Cl)c1ccc(-c2noc(C(F)(F)F)n2)cc1` [Compound 156, N-((2,4-dichlorophenyl)sulfonyl)-4-(5-(trifluoromethyl)-1,2,4-oxadiazol-3-yl)benzamide], the inhibition of growth at 300 ppm with Botrytis cinerea and in the assay with Colletotrichum capsici was more than 70% each time.
With `COc1ccc(S(C)(=O)=Nc2ccc(-c3noc(C(F)(F)F)n3)nc2)cc1` (centres unmarked) [Compound 108, (4-methoxyphenyl)(methyl)((6-(5-(trifluoromethyl)-1,2,4-oxadiazol-3-yl)pyridin-3-yl)imino)-λ^6-sulfanone], the inhibition of growth at 300 ppm in the assay with Alternaria solani and with Botrytis cinerea was more than 70% throughout. Besides, the pest or weed control at 500 ppm with Phakopsora pachyrhizi is more than 90%.
In the case of `CS(=O)(=Nc1ccc(-c2noc(C(F)(F)F)n2)nc1)c1ccccc1` (centres unmarked) [Compound 109, methyl(phenyl)((6-(5-(trifluoromethyl)-1,2,4-oxadiazol-3-yl)pyridin-3-yl)imino)-λ^6-sulfanone], the inhibition of growth at 300 ppm in the assay with Alternaria solani and with Botrytis cinerea was more than 70% in each case. Also, in the assay on Phakopsora pachyrhizi, the pest or weed control at 500 ppm is more than 90%.
Regarding `CS(=O)(=Nc1ccc(-c2noc(C(F)(F)F)n2)cc1)c1cccc(F)c1` (centres unmarked) [Compound 14, (3-fluorophenyl)(methyl)((4-(5-(trifluoromethyl)-1,2,4-oxadiazol-3-yl)phenyl)imino)-λ^6-sulfanone], the inhibition of growth at 300 ppm with Alternaria solani, with Pyricularia oryzae and with Botrytis cinerea was more than 70% throughout. Besides, in the assay on Phakopsora pachyrhizi, the pest or weed control at 500 ppm is more than 90%.
With `COc1ccc(S(C)(=O)=NCc2ccc(-c3noc(C(F)(F)F)n3)cc2)cc1` (centres unmarked) [Compound 23, (4-methoxyphenyl)(methyl)((4-(5-(trifluoromethyl)-1,2,4-oxadiazol-3-yl)benzyl)imino)-λ^6-sulfanone], the inhibition of growth at 300 ppm in the assay on Alternaria solani, in the assay with Pyricularia oryzae, in the assay with Botrytis cinerea and with Colletotrichum capsici was more than 70% each time. Also, in the assay on Phakopsora pachyrhizi, the pest or weed control at 500 ppm is more than 90%.
With `CS(=O)(=Nc1ccc(-c2noc(C(F)(F)F)n2)cc1)c1ccccc1` (centres unmarked) [Compound 18, methyl(phenyl)((4-(5-(trifluoromethyl)-1,2,4-oxadiazol-3-yl)phenyl)imino)-λ^6-sulfanone], the inhibition of growth at 300 ppm in the assay on Alternaria solani, with Pyricularia oryzae and in the assay with Colletotrichum capsici was more than 70% in each case. Further, the pest or weed control at 500 ppm in the assay on Phakopsora pachyrhizi was more than 90%.
In the case of `O=S1(=Nc2ccc(-c3noc(C(F)(F)F)n3)cc2)CCCCC1` [Compound 134, 1-((4-(5-(trifluoromethyl)-1,2,4-oxadiazol-3-yl)phenyl)imino)hexahydro-1λ^6-thiopyran 1-oxide], the inhibition of growth at 300 ppm with Pyricularia oryzae is more than 70%. For the same molecule, in the assay on Septoria lycopersici, the “control compared to the untreated check” value was “more than 70%”.
